≈ marks a conversion by molar mass, not a printed value. Where two headings read alike, the source gives them in different places.
What was measured:
Bacillus subtilis 168CA = experiment: Minimum Inhibitory Concentration (MIC) testing, broth microdilution, Bacillus subtilis; format: cell-based; conditions: for MIC: read-out: Bacillus subtilis MICs Activity
Outline: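 MICs were scored A (≦8 μg/ml), B (16–64 μg/ml) or C (>64 μg/ml), read as the lowest concentration preventing visible growth by eye and spectrophotometry. Plates incubated overnight (16–20 h) at 37 °C, inoculum OD 0.09 diluted 1:100 in 2× broth, per NCCLS guidelines.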

[1] = test system: Staphylococcus aureus ATCC29213; experiment: Minimum Inhibitory Concentration (MIC) testing, broth microdilution, Staphylococcus aureus; format: cell-based; conditions: Staphylococcus aureus ATCC29213; for MIC: read-out: Staphylococcus aureus MICs Activity
Procedure: Compounds of this invention were tested for antimicrobial activity by susceptibility testing in liquid media. MICs for compounds against each strain were determined by a broth microdilution method according to the National Committee for Clinical Laboratory Standards (NCCLS) guidelines. (NCCLS. 2000. Methods for dilution antimicrobial susceptibility tests for bacteria that grow aerobically—fifth edition. Approved standard M7-A5. NCCLS, Wayne, Pa.)
Briefly, test compounds are prepared in 100 μl of 1.6% DMSO solution in multiwell plates. Several bacterial colonies from a freshly streaked plate are transferred to an appropriate rich broth, such as Mueller Hinton. The cell suspension is adjusted to an optical density of 0.09 and further diluted 1:100 with warm 2× broth. This cell suspension is dispensed into the wells containing compound solution so that the final volume is 200 μl. The plates are incubated overnight (16-20 hours) at 37° C. and turbidity is scored by eye and quantified spectrophotometrically. The MIC is defined as the lowest concentration inhibiting visible growth.
Some of the compounds of the Examples were also tested for activity against the pathogenic organism Staphylococcus aureus ATCC29213. […] Activities were again scored as ‘A’ if the MIC was ≦8 micrograms/ml, ‘B’ if the MIC was 16 to 64 micrograms/ml and ‘C’ if the MIC was greater than 64 micrograms/ml.

Compound	MIC (Bacillus subtilis 168CA; Bacillus subtilis 168CA) [µg/mL]	MIC [1] [µg/mL]	Bacillus subtilis MICs Activity (Bacillus subtilis 168CA; Bacillus subtilis 168CA)	Staphylococcus aureus MICs Activity [1]	MIC (Bacillus subtilis 168CA; Bacillus subtilis, 168CA) [µg/mL]
N#Cc1ccc(-c2nc(COc3ccc(F)c(C(N)=O)c3F)sc2Br)cc1 [Example 291, 3-[5-Bromo-4-(4-cyano-phenyl)-thiazol-2-ylmethoxy]-2,6-difluoro-benzamide]	< 8	< 8	–	–	–
NC(=O)c1c(F)ccc(OCc2nc(-c3cccc(O)c3)cs2)c1F [Example 334, 2,6-Difluoro-3-[4-(3-hydroxy-phenyl)-thiazol-2-ylmethoxy]-benzamide]	16 to 64 (≈ 44.2 to 177 µM)	< 8	–	–	–
NC(=O)c1c(Cl)ccc(OCc2nc3cc(Cl)ccc3s2)c1F [Example 220, 6-Chloro-3-[(5-chloro-1,3-benzothiazol-2-yl)methoxy]-2-fluorobenzenecarboxamide]	< 8	< 8	–	–	–
Cc1ccc2sc(COc3ccc(F)c(C(N)=O)c3F)cc2c1 [Example 205, 2,6-Difluoro-3-[(5-methyl-1-benzothiophen-2-yl)methoxy]benzenecarboxamide]	< 8	< 8	–	–	–
Cc1ccc2oc(COc3ccc(F)c(C(N)=O)c3F)nc2c1 [Example 212, 2,6-Difluoro-3-[(5-methyl-1,3-benzoxazol-2-yl)methoxy]benzenecarboxamide]	< 8	16 to 64 (≈ 50.3 to 201 µM)	–	–	–
NC(=O)c1c(F)ccc(OCc2cccc(F)c2)c1F [Example 101, 2,6-Difluoro-3-(3-fluoro-benzyloxy)-benzamide]	16 to 64 (≈ 56.9 to 228 µM)	16 to 64 (≈ 56.9 to 228 µM)	–	–	–
CCCCCCOc1c(F)ccc(C(N)=O)c1F [Example 80, 2,4-Difluoro-3-(hexyloxy)benzenecarboxamide]	16 to 64 (≈ 62.2 to 249 µM)	16 to 64 (≈ 62.2 to 249 µM)	–	–	–
NC(=O)c1c(F)ccc(OCc2nc3cc(-c4cccc(O)c4)ccc3s2)c1F [Example 136, 2,6-Difluoro-3-[5-(3-hydroxy-phenyl)-benzothiazol-2-ylmethoxy]-benzamide]	< 8	< 8	–	–	–
NC(=O)c1cccc(OCCCCO)c1 [Example 42, 3-(4-Hydroxybutoxy)benzenecarboxamide]	16 to 64 (≈ 76.5 to 306 µM)	16 to 64 (≈ 76.5 to 306 µM)	–	–	–
CCCCCCCCCOc1ccc(F)c(C(N)=O)c1 [Example 70, 2-Fluoro-5-(nonyloxy)benzenecarboxamide]	< 8	< 8	–	–	–
NC(=O)c1c(F)ccc(OCCn2cccn2)c1F [Example 144, 2,6-Difluoro-3-(2-pyrazol-1-yl-ethoxy) benzamide]	–	–	C (‘C’ if the MIC was greater than 64 micrograms/ml)	C (‘C’ if the MIC was greater than 64 micrograms/ml)	–
COc1ccc(-c2nc(COc3ccc(F)c(C(N)=O)c3F)co2)cc1 [Example 293, 2,6-Difluoro-3-[2-(4-methoxy-phenyl)-oxazol-4-ylmethoxy]-benzamide]	< 8	< 8	–	–	–
NC(=O)c1c(F)ccc(OCc2noc(-c3cccs3)n2)c1F [Example 134, 2,6-Difluoro-3-(5-thiophen-2-yl-[1,2,4]oxadiazol-3-ylmethoxy)-benzamide]	16 to 64 (≈ 47.4 to 190 µM)	16 to 64 (≈ 47.4 to 190 µM)	–	–	–
CC/C=C\CCCCCOc1cccc(C(N)=O)c1 [Example 61, 3-[(Z)-6-Nonenyloxy]benzenecarboxamide]	< 8	< 8	–	–	–
NC(=O)c1c(F)ccc(OCc2nc3ccccc3o2)c1F [Example 209, 3-(1,3-Benzoxazol-2-ylmethoxy)-2,6-difluorobenzenecarboxamide]	16 to 64 (≈ 52.6 to 210 µM)	> 64	–	–	–
CC(=O)Oc1cccc(COc2cccc(C(N)=O)c2)c1 [Example 172, 3-[3-(Aminocarbonyl)phenoxy]methylphenyl acetate]	> 64	> 64	–	–	–
NC(=O)c1c(F)ccc(OCc2nc(-c3cccc(O)c3)no2)c1F [Example 257, 2,6-Difluoro-3-[3-(3-hydroxyphenyl)-1,2,4-oxadiazol-5-yl]methoxybenzenecarboxamide]	< 8	< 8	–	–	–
COc1ccc(-c2nc(COc3ccc(F)c(C(N)=O)c3F)sc2-c2ccc(N)cc2)cc1 [Example 285, 2,6-Difluoro-3-[5-(4-amino-phenyl)-4-(4-methoxy-phenyl)-thiazol-2-ylmethoxy]-benzamide]	< 8	< 8	–	–	–
NC(=O)c1c(F)ccc(OCc2nc(-c3cccnc3)no2)c1F [Example 262, 2,6-Difluoro-3-[3-(3-pyridinyl)-1,2,4-oxadiazol-5-yl]methoxybenzenecarboxamide]	16 to 64 (≈ 48.2 to 193 µM)	16 to 64 (≈ 48.2 to 193 µM)	–	–	–
NC(=O)c1c(F)ccc(OCc2nc3cc(F)ccc3s2)c1F [Example 216, 2,6-Difluoro-3-[(5-fluoro-1,3-benzothiazol-2-yl)methoxy]benzenecarboxamide]	< 8	< 8	–	–	–

Compound	MIC (Bacillus subtilis 168CA; Bacillus subtilis 168CA) [µg/mL]	MIC [1] [µg/mL]	Bacillus subtilis MICs Activity (Bacillus subtilis 168CA; Bacillus subtilis 168CA)	Staphylococcus aureus MICs Activity [1]	MIC (Bacillus subtilis 168CA; Bacillus subtilis, 168CA) [µg/mL]
NC(=O)c1cccc(OCCC2CCCCCC2)c1 [Example 28, 3-(2-Cycloheptylethoxy)benzenecarboxamide]	< 8	> 64	–	–	–
COc1ccc(-c2nc(COc3ccc(F)c(C(N)=O)c3F)sc2-c2nccs2)cc1 [Example 155, 2,6-Difluoro-3-[4′-(4-methoxy-phenyl)-[2,5′]bithiazolyl-2′-ylmethoxy]-benzamide]	< 8	< 8	–	–	–
NC(=O)c1c(F)ccc(OCc2nc(-c3c(Cl)cccc3Cl)no2)c1F [Example 260, 3-[3-(2,6-Dichlorophenyl)-1,2,4-oxadiazol-5-yl]methoxy-2,6-difluorobenzenecarboxamide]	< 8	< 8	–	–	–
NC(=O)c1c(F)ccc(OCc2nc3cc(-c4ccccc4N)ccc3s2)c1F [Example 141, 3-[5-(2-Amino-phenyl)-benzothiazol-2-ylmethoxy]-2,6-difluoro-benzamide]	< 8	< 8	–	–	–
Cc1ccccc1-c1noc(COc2ccc(F)c(C(N)=O)c2F)n1 [Example 252, 2,6-Difluoro-3-[3-(2-methylphenyl)-1,2,4-oxadiazol-5-yl]methoxybenzenecarboxamide]	< 8	< 8	–	–	–
CCCC(C)COc1cccc(C(N)=O)c1 (stereo not drawn) [Example 39, 3-[(2-Methylpentyl)oxy]benzenecarboxamide]	16 to 64 (≈ 72.3 to 289 µM)	16 to 64 (≈ 72.3 to 289 µM)	–	–	–
COC(=O)c1sc(COc2ccc(F)c(C(N)=O)c2F)nc1-c1ccc(OC)cc1 [Example 313, 2-(3-Carbamoyl-2,4-difluoro-phenoxymethyl)-4-(4-methoxy-phenyl)-thiazole-5-carboxylic acid methyl ester]	< 8	< 8	–	–	–
CCCCCC/C=C\COc1cccc(C(N)=O)c1 [Example 47, 3-[(Z)-2-Nonenyloxy]benzenecarboxamide]	< 8	16 to 64 (≈ 61.2 to 245 µM)	–	–	–
NC(=O)c1c(F)ccc(OCc2ccoc2)c1F [Example 184, 2,6-Difluoro-3-(3-furylmethoxy)benzenecarboxamide]	16 to 64 (≈ 63.2 to 253 µM)	16 to 64 (≈ 63.2 to 253 µM)	–	–	–
NC(=O)c1c(F)ccc(OCc2nc(CCc3ccccc3)cs2)c1F [Example 122, 2,6-Difluoro-3-(4-phenethyl-thiazol-2-ylmethoxy)-benzamide]	< 8	< 8	–	–	–
NC(=O)c1c(F)ccc(OCc2nc3cc(C4=CCCC4)ccc3s2)c1F [Example 316]	–	< 8	–	–	< 8
Cc1csc(COc2ccc(F)c(C(N)=O)c2F)c1 [Example 187, 2,6-Difluoro-3-[(4-methyl-2-thienyl)methoxy]benzenecarboxamide]	16 to 64 (≈ 56.5 to 226 µM)	16 to 64 (≈ 56.5 to 226 µM)	–	–	–
NC(=O)c1c(F)ccc(OCc2noc(C=Cc3ccccc3)n2)c1F [Example 149, 2,6-Difluoro-3-(5-styryl-[1,2,4]oxadiazol-3-ylmethoxy)-benzamide]	< 8	16 to 64 (≈ 44.8 to 179 µM)	–	–	–
COc1cccc(-c2noc(COc3ccc(F)c(C(N)=O)c3F)n2)c1 [Example 256, 2,6-Difluoro-3-[3-(3-methoxyphenyl)-1,2,4-oxadiazol-5-yl]methoxybenzenecarboxamide]	< 8	16 to 64 (≈ 44.3 to 177 µM)	–	–	–
NC(=O)c1c(F)ccc(OCc2nc(Cc3ccccc3)cs2)c1F [Example 137, 3-(4-Benzyl-thiazol-2-ylmethoxy)-2,6-difluoro benzamide]	–	–	B (‘B’ if the MIC was 16 to 64 micrograms/ml)	B (‘B’ if the MIC was 16 to 64 micrograms/ml)	–
NC(=O)c1cccc(OCc2cccc(Br)c2)c1 [Example 171, 3-[(3-Bromobenzyl)oxy]benzenecarboxamide]	16 to 64 (≈ 52.3 to 209 µM)	16 to 64 (≈ 52.3 to 209 µM)	–	–	–
NC(=O)c1c(F)ccc(OCc2nc3cc(Oc4ccccc4)ccc3s2)c1F [Example 327, 2,6-Difluoro-3-(5-phenoxy-benzothiazol-2-ylmethoxy)-benzamide]	< 8	< 8	–	–	–
NC(=O)c1c(F)ccc(OCc2noc(-c3ccccc3)n2)c1F [Example 239, 2,6-Difluoro-3-[(5-phenyl-1,2,4-oxadiazol-3-yl)methoxy]benzenecarboxamide]	16 to 64 (≈ 48.3 to 193 µM)	16 to 64 (≈ 48.3 to 193 µM)	–	–	–
NC(=O)c1c(F)ccc(OCc2nc(-c3ccccc3)no2)c1F [Example 240, 2,6-Difluoro-3-[(3-phenyl-1,2,4-oxadiazol-5-yl)methoxy]benzenecarboxamide]	< 8	< 8	–	–	–

Reference: patent US8088791B2, “Antibacterial agents” (Biots Scientific Management Pty Ltd, priority 2006, dated 2012)
